Measured values published in PMC10584170, “Machine learning-based phenotypic imaging to characterise the targetable biology of Plasmodium falciparum male gametocytes for the development of transmission-blocking antimalarials” (PLOS Pathogens, 2023).
Like-named read-outs stand apart in the source and are kept apart here.

What was measured:
[1] = test system: P. falciparum female gametocytes; assay: P. falciparum Dual Gamete Formation Assay (PfDGFA), female readout (Pfs25-positive female gametes); type: cell-based, Plasmodium falciparum NF54; details: for inhibition at 2 µM: 24h preincubation with gametocytes; for HitlevelF: hits selected on >50% inhibition in the female readout across replicates
Method: (§1) P. falciparum NF54 (originally isolated from an imported malaria case in the Netherlands in the 1980s; BEI Resources, cat. No. MRA-1000) strain asexual parasites were maintained between 0.3–5% parasitaemia by regular passage in complete culture medium (RPMI supplemented with 25 mM HEPES, 50 μg ml^−1 hypoxanthine, 4.8 g l^−1 NaHCO3, 2mM L-glutamine, 5% pooled type AB serum, 0.5% Albumax II (Gibco)) at 4% haematocrit in washed whole blood (National Blood and Transfusion Service or Centro de Transfusiones de la Comunidad de Madrid CTCM) under a 1% O2/3% CO2/96% N2 environment. Gametocytes were induced by seeding culture flasks at 2% parasitaemia/4% haematocrit and subjecting them to daily medium changes for 14 days whilst maintaining a temperature of 37°C at all times. On Day 14, the maturity of gametocytes was assessed by quantifying male gametogenesis (exflagellation). A 20 μl sample of gametocyte culture was mixed with equal volume of ookinete medium (complete culture medium supplemented with 0.1 μM xanthurenic acid) at room temperature and transferred to a haemocytometer. After 20 min at room temperature, exflagellation was accurately quantified as described in Delves et al. 2016 [17].
(§2) The Pf DGFA was performed as described in Delves et al. 2016 [17]. […] Plates were then incubated for 24 h at 37°C in a humidified box under a 1% O2/3% CO2/96% N2 gas mix. Gametogenesis was triggered by addition of 10 μl per well of ookinete medium + 0.27 μg ml^-1 Cy3-labelled anti-Pfs25 antibody. Plates were incubated on a metal block at 4°C for 4 min to ensure even cooling, then 28°C for a further 4 min. Exflagellation was recorded by capturing 10 frames over 1 s under brightfield illumination using a x4 objective with a 1.5x zoom (effectively x6) attached to an automated Nikon Ti fluorescence microscope. After recording exflagellation, plates were incubated for a further 24 h in the dark at 28°C to ensure maximal expression of Pfs25 by female gametes. The plates were then returned to the microscope and female gametes imaged at x6 using fluorescence microscopy.
(§3) Exflagellation centres and female gametes were quantified using custom image analysis pipelines developed within ICY Bioimage Analysis (https://icy.bioimageanalysis.org/).

[2] = test system: P. falciparum male gametocytes; assay: P. falciparum Dual Gamete Formation Assay (PfDGFA), male readout (exflagellation); type: cell-based, Plasmodium falciparum NF54; details: for inhibition at 2 µM: 24h preincubation with gametocytes; for HitlevelM: hits selected on >50% inhibition in the male readout across replicates; for Activity: hit = >50% inhibition in male or female readout in at least 3 replicates, 0 = no class assigned
Method: as §1, §2, §3

[3] = 2µM, 24h preincubation with gametocytes prior to induction of gametogenesis, average of replicates
[4] = 2µM, 24h preincubation with gametocytes prior to induction of gametogenesis, replicate R1
[5] = 2µM, 24h preincubation with gametocytes prior to induction of gametogenesis, replicate R3
[6] = 2µM, 24h preincubation with gametocytes prior to induction of gametogenesis, replicate R4
[7] = PfDGFA at 2µM, 24h preincubation
[8] = PfDGFA at 2µM, 24h preincubation with gametocytes prior to induction of gametogenesis, replicate R1
[9] = PfDGFA at 2µM, 24h preincubation with gametocytes prior to induction of gametogenesis, replicate R3
[10] = PfDGFA at 2µM, 24h preincubation with gametocytes prior to induction of gametogenesis, replicate R4
[11] = PfDGFA at 2µM, 24h preincubation, average of replicates

Row | SMILES | Average inhibition female (%) [1, 3] [%] | % inhibition female (individual replicates) R1 [1, 4] [%] | % inhibition female (individual replicates) R3 [1, 5] [%] | % inhibition female (individual replicates) R4 [1, 6] [%] | HitlevelF ([1]; 2µM, 24h preincubation) | Average inhibition male (%) [2, 3] [%] | % inhibition male (individual replicates) R1 [2, 4] [%] | % inhibition male (individual replicates) R3 [2, 5] [%] | % inhibition male (individual replicates) R4 [2, 6] [%] | HitlevelM ([2]; 2µM, 24h preincubation) | Activity [2, 7] | % inhibition female (individual replicates) R1 [1, 8] [%] | % inhibition female (individual replicates) R3 [1, 9] [%] | % inhibition female (individual replicates) R4 [1, 10] [%] | Average inhibition female (%) [1, 11] [%] | % inhibition male (individual replicates) R1 [2, 8] [%] | % inhibition male (individual replicates) R4 [2, 10] [%] | Average inhibition male (%) [2, 11] [%] | further results
1 | FC(F)(F)c1cccc(NC(=S)NN=Cc2ccccn2)c1 [TCMDC-123509] | – | – | – | – | – | – | – | – | – | – | – | – | – | – | – | – | – | – | Selectivity ratio F ([1]; HepG2 Tox50 versus female IC50): 142.25; inhibition at 2 µM ([1]; Plasmodium falciparum, 2µM, average of replicates, read-out: Average inhibition female (%)): 50.5%; inhibition at 2 µM ([1]; Plasmodium falciparum, 2µM, replicate R1, read-out: % inhibition female (individual replicates) R1): 35.3%; inhibition at 2 µM ([1]; Plasmodium falciparum, 2µM, replicate R2, read-out: % inhibition female (individual replicates) R2): 76.8%; inhibition at 2 µM ([1]; Plasmodium falciparum, 2µM, replicate R3, read-out: % inhibition female (individual replicates) R3): 45%; inhibition at 2 µM ([1]; Plasmodium falciparum, 2µM, replicate R4, read-out: % inhibition female (individual replicates) R4): 45%; IC50 ([1]; Plasmodium falciparum, PfDGFA, 24 h incubation with gametocytes before induction, female gamete readout, read-out: Female IC50): 0.7 µM; Selectivity Ratio M ([2]; HepG2 Tox50 versus male IC50): 143.09; inhibition at 2 µM ([2]; Plasmodium falciparum, 2µM, average of replicates, read-out: Average inhibition male (%)): 94.6%; inhibition at 2 µM ([2]; Plasmodium falciparum, 2µM, replicate R1, read-out: % inhibition male (individual replicates) R1): 103%; inhibition at 2 µM ([2]; Plasmodium falciparum, 2µM, replicate R2, read-out: % inhibition male (individual replicates) R2): 94.6%; inhibition at 2 µM ([2]; Plasmodium falciparum, 2µM, replicate R3, read-out: % inhibition male (individual replicates) R3): 102%; inhibition at 2 µM ([2]; Plasmodium falciparum, 2µM, replicate R4, read-out: % inhibition male (individual replicates) R4): 79.6%; IC50 ([2]; Plasmodium falciparum, PfDGFA, 24 h incubation with gametocytes before induction, exflagellation readout, read-out: Male IC50): 0.7 µM
2 | CC1(C)N=C(N)N=C(N)N1c1ccc(Oc2ccc(Cl)cc2)c(Cl)c1 [TCMDC-123522] | 4.9 | 11.0 | 16.4 | -0.18 | 0 | -4.1 | 6.1 | -10.9 | -16.5 | 0 | 0 | – | – | – | – | – | – | – | –
3 | Cc1cc(N2CCN(C)CC2)nc2ccc(NC(=O)Cc3cccc(C(F)(F)F)c3)cc12 [TCMDC-123590] | – | – | – | – | – | – | – | – | – | – | – | 1.4 | 3.7 | -0.7 | 2.2 | 6.9 | -7.6 | 3.5 | –
4 | Cc1ccc(-c2nc3cc(NC(=O)c4ccc([N+](=O)[O-])o4)ccc3o2)cc1Cl [TCMDC-123657] | 15.9 | 10.9 | 11.0 | 33.8 | 0 | 5.4 | 3.2 | -3.8 | 12.9 | 0 | 0 | – | – | – | – | – | – | – | –
5 | CC(=O)c1cccc(S(=O)(=O)NCCCNc2nc3cc(C)cc(C)c3cc2C#N)c1 [TCMDC-123734] | 6.2 | 1.3 | -13.6 | 33.9 | 0 | -13.5 | -6.4 | -3.8 | -42.5 | 0 | 0 | – | – | – | – | – | – | – | –
6 | COc1ccc(C2CC(c3cccs3)=NN2C(=O)c2ccccc2)cc1OC (centres unmarked) [TCMDC-123755] | – | – | – | – | – | – | – | – | – | – | – | 2.3 | -20.6 | -7.2 | -3.5 | -16.5 | 27.6 | 0.438 | % inhibition male (individual replicates) R3 [2, 9]: -10.3%
